Data taken from PMC7106896, “Synthesis and biological evaluation of 2-(4-methylsulfonyl phenyl) indole derivatives: multi-target compounds with dual antimicrobial and anti-inflammatory activities” (BMC Chemistry, 2020).
Several values for one entry are separate records, joined by “and”; a condition that tells them apart may be missing. Equal values may be shown once. Each block holds one molecule with its values, some of them ahead of it.

Legend:
human recombinant COX-2 = assay: In vitro COX inhibition colorimetric assay; type: biochemical; settings: COX-1 IC50/COX-2 IC50
[1] = test system: carrageenan-induced rat paw edema; assay: Carrageenan-induced rat paw edema assay; type: in vivo; settings: for Edema thickness (mm) ± SEM: n = 4
Experimental: Pretreatment of rats with compounds 7a–k, 8a–c, and 9a–c before injection with carrageenan in rat paw which induces inflammation and then the percentage of paw edema reduction was measured after certain hours according to previously reported procedures.

[2] = test system: Acinetobacter baumannii (ATCC 19606); assay: Antimicrobial screening (CO-ADD), growth inhibition at single concentration; type: cell-based; settings: ATCC19606, at 32 µg/mL concentration, read-out: growth inhibition % Ab (A. baumannii)
Experimental: (§1) The antimicrobial study was performed by CO-ADD (The Community for Antimicrobial Drug Discovery), funded by the Wellcome Trust (UK) and The University of Queensland (Australia). Evaluation of all synthesized compounds for their antimicrobial activities was done against five pathogenic bacteria, methicillin-resistant Staphylococcus aureus (ATCC 43300) as Gram-positive bacteria, Escherichia coli (ATCC 25922), Klebsiella pneumonia (ATCC 700603), Acinetobacter baumannii (ATCC 19606) and Pseudomonas aeruginosa (ATCC 27853) as Gram-negative bacteria and antifungal activity against two pathogenic fungal strains Candida albicans (ATCC 90028) and Cryptococcus neoformans var. grubii (H99; ATCC 208821) (Table 1).

[3] = test system: Pseudomonas aeruginosa (ATCC 27853); assay: as above; type: cell-based; settings: ATCC27853, at 32 µg/mL concentration, read-out: growth inhibition % Pa (P. aeruginosa)
Experimental: as §1

[4] = test system: methicillin-resistant Staphylococcus aureus (ATCC 43300); assay: as above; type: cell-based; settings: ATCC 43300 / MRSA, at 32 µg/mL concentration, read-out: growth inhibition % Sa (MRSA)
Experimental: as §1

[5] = test system: Klebsiella pneumonia (ATCC 700603); assay: as above; type: cell-based; settings: Klebsiella pneumoniae, ATCC700603; at 32 µg/mL concentration; read-out: growth inhibition % Kp (K. pneumoniae)
Experimental: as §1

[6] = test system: Escherichia coli (ATCC 25922); assay: as above; type: cell-based; settings: ATCC25922, at 32 µg/mL concentration, read-out: growth inhibition % Ec (E. coli)
Experimental: as §1

Ovine COX-1 = target: T1, Ovine COX-1 (Ovis aries, UniProt P05979); assay: In vitro COX inhibition colorimetric assay; type: biochemical
T1 construct: purchased Cayman Chemical, Ann Arbor, MI, USA 760111
T1 sequence (P05979 25-600): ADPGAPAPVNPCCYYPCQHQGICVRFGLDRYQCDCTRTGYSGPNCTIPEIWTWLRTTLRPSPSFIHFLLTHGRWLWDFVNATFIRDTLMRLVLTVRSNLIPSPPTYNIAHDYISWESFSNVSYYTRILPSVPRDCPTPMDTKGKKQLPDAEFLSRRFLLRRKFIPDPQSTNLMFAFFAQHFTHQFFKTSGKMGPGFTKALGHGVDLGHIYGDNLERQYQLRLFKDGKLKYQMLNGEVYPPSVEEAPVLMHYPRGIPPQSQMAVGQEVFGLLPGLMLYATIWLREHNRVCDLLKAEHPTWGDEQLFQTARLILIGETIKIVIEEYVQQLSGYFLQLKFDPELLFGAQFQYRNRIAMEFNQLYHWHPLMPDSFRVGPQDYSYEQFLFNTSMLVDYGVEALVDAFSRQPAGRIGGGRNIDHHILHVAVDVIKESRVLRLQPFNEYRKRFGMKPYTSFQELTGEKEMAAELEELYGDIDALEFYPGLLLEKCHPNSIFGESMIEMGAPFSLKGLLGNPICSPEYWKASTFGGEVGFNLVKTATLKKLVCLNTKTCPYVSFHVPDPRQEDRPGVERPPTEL

[7] = test system: Candida albicans (ATCC 90028); assay: Antifungal screening (CO-ADD), growth inhibition at single concentration; type: cell-based; settings: ATCC90028, at 32 µg/mL concentration, read-out: growth inhibition % Ca (C. albicans)
Experimental: as §1

- melting point: 203 to 204 °C
- IC50 (Ovine COX-1): 11.4 µM
Compound: CS(=O)(=O)c1ccc(-c2[nH]c3ccccc3c2C=NNc2ccc(S(N)(=O)=O)cc2)cc1 [Compound 7c, 4-(2-((2-(4-(Methylsulfonyl)phenyl)-1H-indol-3-yl)methylene)hydrazinyl)benzene sulfonamide]
- Selectivity index (SI) (human recombinant COX-2): 103.7 and 103.72
- Edema inhibition % ([1]; 1 h): 62.7%
- Edema thickness (mm) ± SEM ([1]; 1 h): 0.978 ± 0.071 mm
- Edema inhibition % ([1]; 3 h): 81.2%
- Edema thickness (mm) ± SEM ([1]; 3 h): 0.419 ± 0.028 mm
- Edema inhibition % ([1]; 6 h): 82.5%
- Edema thickness (mm) ± SEM ([1]; 6 h): 0.331 ± 0.011 mm
- inhibition at 32 µg/mL [2]: 43.3%
- inhibition at 32 µg/mL [3]: 11.3%
- inhibition at 32 µg/mL [4]: 21.9%
- inhibition at 32 µg/mL [5]: 12.8%
- inhibition at 32 µg/mL [6]: 3.17%
- inhibition at 32 µg/mL [7]: 4.13%

- melting point: 202 to 204 °C
- IC50 (Ovine COX-1): 9.41 µM
Compound: CS(=O)(=O)c1ccc(-c2[nH]c3ccc(F)cc3c2-c2nc3cc(Cl)ccc3[nH]2)cc1 [Compound 8b, 5-Chloro-2-(5-fluoro-2-(4-(methylsulfonyl)phenyl)-1H-indol-3-yl)-1H-benzo[d] imidazole]
- Selectivity index (SI) (human recombinant COX-2): 62.73
- Edema inhibition % ([1]; 1 h): 52.1%
- Edema thickness (mm) ± SEM ([1]; 1 h): 1.256 ± 0.074 mm
- Edema inhibition % ([1]; 3 h): 68.1%
- Edema thickness (mm) ± SEM ([1]; 3 h): 0.712 ± 0.066 mm
- Edema inhibition % ([1]; 6 h): 76.2%
- Edema thickness (mm) ± SEM ([1]; 6 h): 0.451 ± 0.013 mm
- inhibition at 32 µg/mL [2]: 22.4%
- inhibition at 32 µg/mL [3]: 14.5%
- inhibition at 32 µg/mL [4]: 11.3%
- inhibition at 32 µg/mL [5]: 6.56%
- inhibition at 32 µg/mL [7]: 13.2%

- melting point: 187 to 188 °C
- IC50 (Ovine COX-1): 12.4 µM
Compound: CS(=O)(=O)c1ccc(N/N=C/c2c(-c3ccc(S(C)(=O)=O)cc3)[nH]c3ccc(F)cc23)cc1 [Compound 7h, 5-Fluoro-2-(4-(methylsulfonyl)phenyl)-3-((2-(4-(methylsulfonyl)phenyl) hydraz-ono)methyl)-1H-indole]
- Selectivity index (SI) (human recombinant COX-2): 112.7 and 112.72
- Edema inhibition % ([1]; 1 h): 75.4%
- Edema thickness (mm) ± SEM ([1]; 1 h): 0.645 ± 0.058 mm
- Edema inhibition % ([1]; 3 h): 89.4%
- Edema thickness (mm) ± SEM ([1]; 3 h): 0.236 ± 0.008 mm
- Edema inhibition % ([1]; 6 h): 92.7%
- Edema thickness (mm) ± SEM ([1]; 6 h): 0.138 ± 0.006 mm
- inhibition at 32 µg/mL [2]: 51.8%
- inhibition at 32 µg/mL [3]: 7.97%
- inhibition at 32 µg/mL [4]: 30.3%
- inhibition at 32 µg/mL [5]: 23.6%
- inhibition at 32 µg/mL [7]: 25.3%

- melting point: 226 to 228 °C
- IC50 (Ovine COX-1): 9.42 µM
Compound: CS(=O)(=O)c1ccc(-c2[nH]c3ccc(F)cc3c2C=NO)cc1 [Compound 9b, 5-Fluoro-2-(4-(methylsulfonyl)phenyl)-1H-indole-3-carbaldehyde oxime]
- Selectivity index (SI) (human recombinant COX-2): 44.85
- Edema inhibition % ([1]; 1 h): 66.2%
- Edema inhibition % ([1]; 3 h): 80.5%
- Edema thickness (mm) ± SEM ([1]; 3 h): 0.700 ± 0.024 mm
- Edema inhibition % ([1]; 6 h): 73.4%
- Edema thickness (mm) ± SEM ([1]; 6 h): 0.726 ± 0.055 mm
- inhibition at 32 µg/mL [2]: 33.3%
- inhibition at 32 µg/mL [3]: 7.9%
- inhibition at 32 µg/mL [4]: 10.3%
- inhibition at 32 µg/mL [5]: 9.23%
- inhibition at 32 µg/mL [7]: 2.47%

- melting point: 151 to 153 °C
- IC50 (Ovine COX-1): 8.24 µM
Compound: Cc1ccc(NN=Cc2c(-c3ccc(S(C)(=O)=O)cc3)[nH]c3ccc(F)cc23)cc1 [Compound 7k, 5-Fluoro-2-(4-(methylsulfonyl)phenyl)-3-((2-(p-tolyl)hydrazono)methyl)-1H-indole]
- Selectivity index (SI) (human recombinant COX-2): 39.20
- Edema inhibition % ([1]; 1 h): 55.7%
- Edema thickness (mm) ± SEM ([1]; 1 h): 1.162 ± 0.088 mm
- Edema inhibition % ([1]; 3 h): 69.1%
- Edema thickness (mm) ± SEM ([1]; 3 h): 0.689 ± 0.011 mm
- Edema inhibition % ([1]; 6 h): 66.3%
- Edema thickness (mm) ± SEM ([1]; 6 h): 0.638 ± 0.051 mm
- inhibition at 32 µg/mL [2]: 31.4%
- inhibition at 32 µg/mL [3]: 2.23%
- inhibition at 32 µg/mL [4]: 28.2%
- inhibition at 32 µg/mL [5]: 8.77%
- inhibition at 32 µg/mL [7]: 1.79%
